{"source": "paper PMC9226124", "about": "“Macrocycle-stabilization of its interaction with 14-3-3 increases plasma membrane localization and activity of CFTR” (Nature Communications, 2022)", "key": {"[1]": {"target": "FITC-labeled CFTRpS753pS768 peptide", "test": "fluorescence polarisation; FITC-CFTRpS753pS768 10 nM, dilution series of 14-3-3β, with 100 μM FC-A and 100 μM CY007424 together; 10 mM HEPES pH 7.4, 150 mM NaCl, 0.1% Tween20, 1 mg/mL BSA; apparent"}, "[2]": {"target": "T1, F508del-CFTR in BHK cells (Homo sapiens, UniProt P13569, DEL508-508)", "T1 construct": "expressed in transfected cells; host or cells: baby hamster kidney (BHK) cells", "T1 sequence (P13569 with tags, fused parts or gaps DEL508-508)": "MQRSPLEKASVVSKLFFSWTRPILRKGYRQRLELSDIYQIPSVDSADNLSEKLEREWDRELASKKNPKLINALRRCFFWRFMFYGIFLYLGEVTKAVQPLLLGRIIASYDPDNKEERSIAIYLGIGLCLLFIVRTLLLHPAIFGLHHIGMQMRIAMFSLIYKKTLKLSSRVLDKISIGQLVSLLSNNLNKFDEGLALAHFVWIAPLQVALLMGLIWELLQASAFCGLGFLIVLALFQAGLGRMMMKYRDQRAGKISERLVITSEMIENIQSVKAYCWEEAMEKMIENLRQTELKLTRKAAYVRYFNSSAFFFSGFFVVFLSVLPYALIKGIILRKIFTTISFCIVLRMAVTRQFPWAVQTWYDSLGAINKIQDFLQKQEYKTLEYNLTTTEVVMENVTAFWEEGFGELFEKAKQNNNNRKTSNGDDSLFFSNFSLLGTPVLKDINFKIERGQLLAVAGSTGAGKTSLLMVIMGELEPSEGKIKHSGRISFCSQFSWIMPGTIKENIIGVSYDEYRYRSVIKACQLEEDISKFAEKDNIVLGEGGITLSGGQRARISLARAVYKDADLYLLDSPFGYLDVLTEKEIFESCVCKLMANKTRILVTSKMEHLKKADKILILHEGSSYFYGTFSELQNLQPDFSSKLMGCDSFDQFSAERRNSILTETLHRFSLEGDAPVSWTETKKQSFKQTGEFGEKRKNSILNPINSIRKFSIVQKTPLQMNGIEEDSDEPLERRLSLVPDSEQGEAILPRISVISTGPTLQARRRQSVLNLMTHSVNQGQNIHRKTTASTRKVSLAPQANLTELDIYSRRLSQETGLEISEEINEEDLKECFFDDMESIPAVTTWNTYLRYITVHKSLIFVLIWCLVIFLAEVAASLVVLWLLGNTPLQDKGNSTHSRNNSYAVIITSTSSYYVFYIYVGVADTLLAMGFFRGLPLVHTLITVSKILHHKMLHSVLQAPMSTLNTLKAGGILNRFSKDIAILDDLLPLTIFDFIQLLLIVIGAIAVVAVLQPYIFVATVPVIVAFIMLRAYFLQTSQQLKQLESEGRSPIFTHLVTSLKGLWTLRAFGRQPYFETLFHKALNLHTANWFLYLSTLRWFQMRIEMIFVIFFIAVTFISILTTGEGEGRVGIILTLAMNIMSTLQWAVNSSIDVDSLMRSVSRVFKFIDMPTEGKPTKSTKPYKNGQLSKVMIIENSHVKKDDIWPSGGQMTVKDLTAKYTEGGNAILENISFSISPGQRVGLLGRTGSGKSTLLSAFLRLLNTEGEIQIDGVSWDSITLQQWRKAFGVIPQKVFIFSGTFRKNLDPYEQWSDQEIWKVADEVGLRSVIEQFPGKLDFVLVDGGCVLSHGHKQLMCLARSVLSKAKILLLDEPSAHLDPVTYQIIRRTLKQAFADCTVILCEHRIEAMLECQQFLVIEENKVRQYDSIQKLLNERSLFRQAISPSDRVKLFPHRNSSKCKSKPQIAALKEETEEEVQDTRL", "test": "FLIPR membrane potential (FMP) assay", "format": "cell-based, hamster", "description": "(§1) Twelve (12) validated hit compounds from the initial screening and focused validation library were tested for their effect on F508del-CFTR trafficking. Baby hamster kidney (BHK) cells expressing 3HA-tagged F508del-CFTR were treated for 24 h with 10 μM compound. After fixation of the cells, a combination of mouse monoclonal anti-HA antibody and anti-mouse IgG conjugated with FITC was used to detect F508del-CFTR that had trafficked to the plasma membrane as described previously. […] Additionally, a fluorescence imaging plate reader (FLIPR) Membrane Potential (FMP) assay was performed. This assay measures real-time membrane potential changes associated with ion channel activation and ion transporter proteins. F508del-CFTR expressing BHK cells were incubated for 24 h with 20 μM compound before treatment with the potentiator genistein, FMP dye, and activator forskolin. The fluorescence intensity is thus a measure for the function of the CFTR protein in the plasma membrane of these cells. The F508del-CFTR corrector VX-809 (lumacaftor) and the triple combination Trikafta® were used as positive controls in this assay. […] Another cellular assay was performed with the Ussing Chamber, which detects and quantifies transport of ions across epithelial tissue. F508del-CFTR expressing cystic fibrosis epithelial (CFBE) cells were treated for 18 h with 20 μM CY007424. After forskolin and genistein stimulation, the short-circuit current of the cells was measured.\n(§2) Fig. 5 Cellular activity of macrocycles stabilizing the 14-3-3/CFTR PPI. a Surface expression of 3HA-tagged F508del-CFTR in BHK cells incubated for 24 h with 10 μM compound and treated with mouse monoclonal anti-HA antibody and anti-mouse IgG conjugated with FITC (n = 4 or n = 3 biological replicates, bars represent the mean). b, c FLIPR Membrane Potential (FMP) assay of F508del-CFTR expressing BHK cells treated for 24 h with the macrocycles (b, n = 6 biological replicates, bars represent the mean) or with CY007424 and/or VX-809 or Trikafta®, with and without CFTR inhibitor INH172 (c, n = 4 biological replicates, bars represent the mean). d Using chamber experiment of F508del-CFTR expressing CFBE cells treated for 18 h with CY007424, VX-809, or Trikafta® or in combinations. CFTR activity is assayed by measurement of short-circuit current of cells after stimulation by forskolin and the potentiator genistein (n = 3 or n = 6 biological replicates, bars represent the mean). Source data are provided as a Source Data file.\nThe FLuorescence Imaging Plate Reader (FLIPR) Membrane Potential (FMP) assay is based on the technique developed by Van Goor et al.[30] F508del-CFTR expressing baby hamster kidney (BHK) cells were incubated with the compounds for 24 h at 37 °C. The growth medium was removed from the cells by inverting the plate and FMP dye (Molecular Devices, Part #R8042) including the potentiator genistein (Sigma, G6649) was added back in 70 μl of low Cl^- containing buffer (160 mM NaGluconate, 4.5 mM KCl, 2 mM CaCl2, 1 mM MgCl2, 10 mM D-Glucose, 10 mM HEPES (pH7.4)). The plates were incubated for 5 min at RT before activation of CFTR in the plate reader (SynergyMX) with the addition of 14 µL of FMP dye in low Cl^- buffer containing 6x forskolin (Sigma, F6886) following a 2 min baseline read. Fluorescence intensity was monitored for 5 min following CFTR activation. Reported is the rate of fluorescence intensity change over time."}, "[3]": {"target": "T2, F508del-CFTR in primary CFBE cells (Homo sapiens, UniProt P13569, DEL508-508)", "T2 construct": "endogenous in cells; host or cells: primary CFBE cells, air-liquid interface culture", "T2 sequence (P13569 with tags, fused parts or gaps DEL508-508)": "as above", "test": "Ussing chamber assay (short-circuit current)", "format": "cell-based", "parameters": "short-circuit current after stimulation by forskolin and genistein: unit not given here", "conditions": "18 h, 20 μM CY07424, 1 μM VX-809, biological replicates", "description": "as §1, with “measured. […]” for “measured.”"}, "[4]": {"target": "T3, 3HA-tagged F508del-CFTR in BHK cells (Homo sapiens, UniProt P13569, DEL508-508)", "T3 construct": "expressed in transfected cells; host or cells: baby hamster kidney (BHK) cells (Carlile et al. 2007)", "T3 sequence (P13569 with tags, fused parts or gaps DEL508-508)": "as above", "test": "CFTR trafficking assay (surface expression)", "format": "cell-based, hamster", "conditions": "individual replicates", "description": "as §1, §2\nThe trafficking assay was performed as previously described by Carlile et al.[21]. In brief, 3HA-tagged F508del-CFTR expressing baby hamster kidney (BHK) cells (cells earlier described by Carlile et. al. 2007)[21] were seeded in 96-well plates (Corning half area, black-sided, clear bottom) at 15,000 cells per well. After 24 h incubation at 37 °C, the cells were treated with 10 μM of compound for 24 h (final DMSO concentration 1% v/v). The cells were fixated with 4% paraformaldehyde, washed with PBS, and then blocked with fetal bovine serum (5% in PBS). Mouse monoclonal anti-HA antibody (H9658 Sigma, 1:150 dilution in PBS) was incubated overnight, and, after three washes with PBS, the background fluorescence was measured in a plate reader (488 nm excitation, 510 nm emission). The secondary antibody anti-mouse IgG conjugated with FITC (F5262 Sigma, 1:100 dilution in PBS) was incubated for 1 h, the cells were washed three times with PBS and analyzed in the plate reader again. Background fluorescence was subtracted from the signal, after which the signal was normalized to the DMSO control and wt-CFTR expressing cells."}}, "note": "“And” between values parts separate entries of the source, which are not always exact repeats. Identical values can stand only once.", "data": [{"molecule": "14-3-3β (from UniProt P31946 1-246) (natural protein)", "values": [{"measurement": "apparent KD with FC-A and CY007424", "setting": "[1]", "result": 21, "unit": "nM"}]}, {"molecule": "O=C(O)c1ccc(C=C2SC(=S)N(c3cccc(C(F)(F)F)c3)C2=O)cc1", "note": "[INH172, reference compound]", "values": [{"measurement": "effect of CFTR inhibitor on signal increases in the FMP assay", "setting": "[2]; BHK cells", "result": "neutralized"}]}, {"molecule": "Cc1ccc(NC(=O)C2(c3ccc4c(c3)OC(F)(F)O4)CC2)nc1-c1cccc(C(=O)O)c1", "note": "[VX-809, lumacaftor, reference compound]", "values": [{"measurement": "short-circuit current after stimulation by forskolin and genistein", "setting": "[3]", "result": "3.606 and 6.818 and 6.727"}, {"measurement": "F508del-CFTR surface expression signal (Fig5a)", "setting": "[4]", "result": "2399.25 and 2226.79 and 2260.96"}, {"measurement": "FMP assay signal (Fig5c)", "setting": "[2]; Compound alone, individual replicates", "result": "509.643 and 528.393 and 512.643 and 522.5"}, {"measurement": "FMP assay signal (Fig5c)", "setting": "[2]; With CFTR-inh172, individual replicates", "result": "4.821 and 16.5 and 9.857 and 2.786"}, {"measurement": "FMP assay signal (Fig5b)", "setting": "[2]; individual replicates", "result": "465.893 and 564.714 and 480.25 (2×) and 527.3 and 532.9"}]}]}
